Values quoted from earlier work in patent US20050232866A1, “Biochemically-activated contrast agents for magnetic resonance imaging” (Alerion Biomedical Inc., priority 2004, published 2005).

What was measured:
[1] = Gd(III) chelate
[2] = physiological pH

| SMILES | stability constant (formation constant) logK [1] | dissociation kinetics [2] |
| --- | --- | --- |
| O=C([O-])CN1CCN(CC(=O)[O-])CCN(CC(=O)O)CCN(CC(=O)[O-])CC1.[Gd+3] [Gd-DOTA] | 28.5 | very slow dissociation kinetics |
| O=C([O-])CN(CCN(CC(=O)[O-])CC(=O)O)CCN(CC(=O)[O-])CC(=O)O.[Gd+3] [Gd(DTPA)] | 22.4 | – |
